In US20240092774A1, “HETEROAROMATIC COMPOUNDS AND USES THEREOF” (HUTCHISON MEDIPHARMA LIMITED, priority 2020, published 2024):

Tests used:
[1] = molecular target: CSF1R phosphorylation in THP-1 cells (Homo sapiens (Human), UniProt P07333); test: Detection of CSF1R phosphorylation activity at cell level (p-CSF1R ELISA, M-CSF stimulated THP-1 cells); format: cell-based; details: THP-1 cells, M-CSF stimulation, p-CSF1R ELISA; read-out: IC50
Method: THP-1 (ATCC), human acute monocytic leukemia cells.
3. Treatment of cells and preparation of lysis buffer
5 μL. of the diluted compound was added to the 50 μL cell culture system, the culture was cultured in a 5% CO2, 37° C. cell incubator for 60 min, 300 ng/mL of M-CSF was added to the cells, and the mixture was stimulated in the 37° C. cell incubator for 1 min, added 50 μL of cell lysis buffer, and stored in a refrigerator at −80° C.
100 μL/well of the p-CSF1R capture antibody diluted to 0.8 μg/mL with PBS was added to the ELISA plate, and the plate was coated on a shaker at room temperature overnight. The culture was washed with PBST, and then added blocking solution and incubated at room temperature for 2 h. The culture was washed with PBST, added 90 μL of cell lysis buffer, and incubated on a shaker at 25° C. for 2 h. The plate was washed with PBST three times, added 100 μL of anti-p-tyrosine-HRP detection antibody diluted with 0.1% PBS-BSA diluent, and incubated on a shaker at 25° C. for 2 h. The plate was washed with PBST washing liquid, added 100 μL of chromogenic substrate and incubated at room temperature for 10-20 min. The reaction was stopped by adding 50 μL of 2N H2SO4. The optical density signal (450/570 nm) of each well was detected in Labsystems Multiskan K3 or Envision.
wherein • Drug-treated well read-out: indicating the optical density signal of a cell well with the test compound treatment. • Background read-out: indicating the optical density signal of a well without cells but with cell lysis buffer. • Cell well read-out: indicating the optical density signal of a cell well not treated with the compound.
6. Calculation of IC50: obtained by using XL-Fit 5.3 software, […]

[2] = molecular target: Recombinant human CSF1R kinase (Homo sapiens (Human), UniProt P07333); test: Measurement of CSF1R kinase activity at molecular level (Z-LYTE); format: biochemical; details: Z-LYTE Tyr 1 peptide
Method: Invitrogen, PV3227; • Development reagent B: Invitrogen, PV3295; • Development buffer: Invitrogen. P3127; • Stopping solution: Invitrogen, P3094; • Recombinant human CSF1R kinase: Invitrogen, P[…]; • 384 well plate, black: Corning. 3575; • Envision: Perkin Elmer. 2. […] The test compound was diluted in gradient to 4-fold the reaction concentration and the concentration of DMSO was kept at 8%. […] The mixture was mixed gently with a pipette. • 4) A phosphorylated peptide substrate solution (PP solution): 0.4 μL of Z-LYTETM Tyr1 phosphorylated peptide substrate was added to 99.6 μl of 1.33× kinase buffer. • 5) ATP solution: 10 mM of ATP was diluted to 760 μM with 1.33× kinase buffer to prepare ATP solution. • 6) Development solution: Development reagent B was diluted with Development buffer at a ratio of 1:200. 3. […] 2.5 μL of 4× test compound was added to each reaction well of the 384 plate, and the corresponding volume of 8% DMSO was added to the control well. The plate was placed on ice. […] After adding the reaction components, the 384-well plate was sealed and incubated at 25-30° C. for 1 h in dark. 2) Development Reaction 5 μL of Development solution was added to each well, sealed and incubated at 25-30° C. for another 1 h in dark. 3) Reaction Stopping and Plate Reading 5 μL of stopping solution was added to each well. The Coumarin value (excitation at 400 nm, emission at 445 nm) and Fluorescein value (excitation at 400 nm, emission at 520 nm) were measured, respectively. 4. […] Coumarin emission read-out (445 nm)/Fluorescein emission read-out (520 nm); • C3 445 nm: 100% phosphorylated Coumarin emission read-out; • C3 520 nm: 100% phosphorylated Fluorescein emission read-out; • C1 445 nm: 0% phosphorylated Coumarin emission read-out; • C1 520 nm: 0% phosphorylated Fluorescein emission read-out. […] 5. IC50 values: calculated by using software XL-FitTM (version 5.3) supplied by ID Business Solutions (Guildford, UK), which is an additional software to Microsoft Excel.

Chain of Recombinant human CSF1R kinase (P07333 20-972): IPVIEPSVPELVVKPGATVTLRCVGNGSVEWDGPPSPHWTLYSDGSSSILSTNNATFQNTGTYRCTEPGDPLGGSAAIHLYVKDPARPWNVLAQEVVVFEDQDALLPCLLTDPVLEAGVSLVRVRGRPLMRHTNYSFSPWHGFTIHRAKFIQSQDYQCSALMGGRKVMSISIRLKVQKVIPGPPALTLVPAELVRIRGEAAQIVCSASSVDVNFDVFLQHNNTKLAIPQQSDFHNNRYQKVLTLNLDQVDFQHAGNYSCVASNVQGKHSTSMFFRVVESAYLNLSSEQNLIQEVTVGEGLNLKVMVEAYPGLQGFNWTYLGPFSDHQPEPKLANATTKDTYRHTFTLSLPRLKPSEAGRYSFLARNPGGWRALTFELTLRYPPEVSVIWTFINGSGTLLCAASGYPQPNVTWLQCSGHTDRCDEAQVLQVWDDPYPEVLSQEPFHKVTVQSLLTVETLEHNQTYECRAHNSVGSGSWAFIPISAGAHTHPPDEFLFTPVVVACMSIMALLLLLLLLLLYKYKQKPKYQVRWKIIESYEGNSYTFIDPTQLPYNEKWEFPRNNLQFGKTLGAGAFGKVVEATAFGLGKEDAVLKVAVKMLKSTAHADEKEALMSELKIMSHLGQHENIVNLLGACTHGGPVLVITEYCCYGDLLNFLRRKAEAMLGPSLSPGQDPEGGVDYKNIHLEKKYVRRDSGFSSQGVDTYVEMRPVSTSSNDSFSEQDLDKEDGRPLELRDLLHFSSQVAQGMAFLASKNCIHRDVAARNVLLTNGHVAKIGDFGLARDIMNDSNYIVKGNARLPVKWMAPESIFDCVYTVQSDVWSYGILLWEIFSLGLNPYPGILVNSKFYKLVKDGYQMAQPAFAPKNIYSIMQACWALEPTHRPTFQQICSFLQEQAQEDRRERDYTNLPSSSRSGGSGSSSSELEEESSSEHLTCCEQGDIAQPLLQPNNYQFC
Chain of CSF1R phosphorylation in THP-1 cells (P07333 20-972): as above

COc1ccc([C@@H]2COc3cc(Oc4ccc5ncc(C)c(=O)n5c4)cnc3O2)cn1 [Compound 86]
IC50 [1]: 56 nM
IC50 [2]: 8 nM
